Measurements reported in patent US20200017496A1 (priority 2017, published 2020).

Experiments:
Assay in all cases: MIC of compounds alone and combined with antibacterials, broth microdilution (CLSI)
Format in all cases: cell-based
[1] = tested on: Citrobacter koseri (CKR) isolates; conditions: AF1 @ 4 μg/mL
How it was run: (§1)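 Compound MIC, and antibacterial MIC at each fixed compound level, taken by visual inspection as lowest concentration stopping growth. Inoculum: log-phase bacteria, final 5·10^5 CFU/mL, cation-adjusted Mueller-Hinton broth; 16-20 h, 35° C, ambient air.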

[2] = tested on: Klebsiella oxytoca (KOX) isolates; conditions: AF1 @ 4 μg/mL
How it was run: as §1

[3] = tested on: Klebsiella pneumoniae (KPN) isolates; conditions: AF1 @ 4 μg/mL
How it was run: as §1

[4] = tested on: Providencia stuartii (PST) isolates; conditions: AF1 @ 4 μg/mL
How it was run: as §1

[5] = tested on: Salmonella typhimurium (STY) isolates; conditions: STY S3371; AF1 @ 4 μg/mL
How it was run: as §1

COCC1=C(C(=O)O)N2C(=O)[C@@H](NC(=O)/C(=N\OC)c3csc(N)n3)[C@H]2SC1 [POD, Cefpodoxime]
MIC ATB in combination ([1]; CKO ROU): 2 µg/mL
MIC ATB in combination ([1]; CKO UFR149): 8 µg/mL
MIC ATB in combination ([1]; CKO UFR150): 8 µg/mL
MIC ATB in combination ([2]; KOX UFR21): 1 µg/mL
MIC ATB in combination ([2]; KOX UFR173): 0.5 µg/mL
MIC ATB in combination ([2]; KOX UFR223): <=0.25 μg/mL
MIC ATB in combination ([2]; KOX UFR224): <=0.25 μg/mL
MIC ATB in combination ([3]; KPN 6299): <=0.25 μg/mL
MIC ATB in combination ([3]; KPN 110376): <=0.25 μg/mL
MIC ATB in combination ([3]; KPN 131119): <=0.25 μg/mL
MIC ATB in combination ([3]; KPN 140513): 4 µg/mL
MIC ATB in combination ([3]; KPN 160143): <=0.25 μg/mL
MIC ATB in combination ([3]; KPN 190128): 0.5 µg/mL
MIC ATB in combination ([3]; KPN 190270): 0.5 µg/mL
MIC ATB in combination ([3]; KPN 190425): <=0.25 μg/mL
MIC ATB in combination ([3]; KPN 190551): <=0.25 μg/mL
MIC ATB in combination ([3]; KPN 200047): <=0.25 μg/mL
MIC ATB in combination ([3]; KPN 200327): <=0.25 μg/mL
MIC ATB in combination ([3]; KPN 260251): <=0.25 μg/mL
MIC ATB in combination ([3]; KPN 260252): 4 µg/mL
MIC ATB in combination ([3]; KPN 260376): <=0.25 μg/mL
MIC ATB in combination ([3]; KPN 270077): 0.5 µg/mL
MIC ATB in combination ([3]; KPN 700603): 0.5 µg/mL
MIC ATB in combination ([3]; KPN ARA): <=0.25 μg/mL
MIC ATB in combination ([3]; KPN BAA-1898): 0.5 µg/mL
MIC ATB in combination ([3]; KPN LIB): <=0.25 μg/mL
MIC ATB in combination ([3]; KPN UFR22_O): <=0.25 μg/mL
MIC ATB in combination ([3]; KPN UFR23): <=0.25 μg/mL
MIC ATB in combination ([3]; KPN UFR24): 1 µg/mL
MIC ATB in combination ([3]; KPN UFR25): <=0.25 μg/mL
MIC ATB in combination ([3]; KPN UFR27): 4 µg/mL
MIC ATB in combination ([3]; KPN UFR28): <=0.25 μg/mL
MIC ATB in combination ([3]; KPN UFR65): 0.5 µg/mL
MIC ATB in combination ([3]; KPN UFR66): 2 µg/mL
MIC ATB in combination ([3]; KPN UFR67): 4 µg/mL
MIC ATB in combination ([3]; KPN UFR68): 1 µg/mL
MIC ATB in combination ([3]; KPN UFR76): >128 µg/mL
MIC ATB in combination ([3]; KPN UFR77): 4 µg/mL
MIC ATB in combination ([3]; KPN UFR78): 128 µg/mL
MIC ATB in combination ([3]; KPN UFR79): 4 µg/mL
MIC ATB in combination ([3]; KPN UFR80): 0.5 µg/mL
MIC ATB in combination ([3]; KPN UFR81): 4 µg/mL
MIC ATB in combination ([3]; KPN UFR215): 0.5 µg/mL
MIC ATB in combination ([3]; KPN UFR216): <=0.25 μg/mL
MIC ATB in combination ([3]; KPN UFR217): <=0.25 μg/mL
MIC ATB in combination ([3]; KPN UFR219): <=0.25 μg/mL
MIC ATB in combination ([3]; KPN UFR220): 4 µg/mL
MIC ATB in combination ([3]; KPN UFR221): 1 µg/mL
MIC ATB in combination ([3]; KPN UFR222): 8 µg/mL
MIC ATB in combination ([3]; KPN UFR227O): 4 µg/mL
MIC ATB in combination ([4]; PST UFR94): 0.5 µg/mL
MIC ATB in combination ([4]; PST UFR95): 2 µg/mL
MIC ATB in combination ([4]; PST UFR235): 2 µg/mL
MIC ATB in combination [5]: <=0.25 μg/mL
